In article PMC11096781, “Population pharmacokinetics of intravenous daptomycin in critically ill patients: implications for selection of dosage regimens” (Frontiers in Pharmacology, 2024):
Entries after “also recorded” stand apart in the source; their conditions may differ.

Key:
[1] = From the text: Plasma samples were collected from patients who received an intravenous infusion of daptomycin in the intensive care unit (ICU) of Zhongnan Hospital of Wuhan University from April 2021 to December 2022 according to the inclusion and exclusion criteria and the clinical sample sampling protocol for blood drug concentration testing. Patients who fulfilled the following criteria were eligible: ≥18 years old; treated with daptomycin for proven/probable infections caused by Gram-positive organisms that were unresponsive or intolerant to other antimicrobial agents. The exclusion criteria were pregnancy, known or suspected hypersensitivity to daptomycin and its excipients, and incomplete or missing laboratory data before and after treatment.
Daptomycin (Jiangsu Hengrui Medicine Co., Ltd.) dissolved in 100 mL normal saline was administered as a 30-min infusion. The daptomycin dose was 500 mg every 24 h. To obtain a complete blood drug concentration time curve after administration, we took into account the equilibrium phase (near peak concentration) and elimination phase of the drug in the design of sampling time points. On the first day of administration, blood samples were collected at 0, 0.5, 1, 2, 4, 8, 12, and 24 h after infusion. On the third day of administration, blood samples were collected before administration and at 0, 0.5, 1, 2, 4, 8, 12, and 24 h after infusion. On the fifth and seventh days, blood samples were collected before administration and at 0.5 and 4 h after infusion. Blood was drawn and allowed to clot in yellow blood-collecting tubes containing separating glue and a coagulant accelerator. Serum was collected by centrifugation and stored at −80°C until assayed. As soon as the study dose was administered, the participants were monitored for potential side effects. Serious adverse events were defined as adverse events related to daptomycin that required treatment discontinuation.
Serum daptomycin concentrations were measured using a high-performance liquid chromatography-tandem mass spectrometry method developed in our laboratory, the lower limit of quantification was 0.05 μg mL^−1. Briefly, serum samples were analyzed after protein precipitation. Daptomycin-d5 (Beijing Hager Biotechnology Co., Ltd.) was used as an internal standard. A Waters ACQUITY UPLC C8 column (2.1 mm × 50 mm, 1.7 μm) was used for separation. The mobile phase consisted of phase A: water (0.1% formic acid), phase B: 1:1 methanol: acetonitrile (0.1% formic acid) at a flow rate of 0.4 mL min^−1, column temperature of 45°C, injection volume of 2 μL, and analysis time of 4 min. Ion transitions were performed using positive electrospray ionization in the multiple reaction monitoring mode.
Before measurement, the sample was restored to room temperature, 100 μL of 1:1 methanol: acetonitrile was measured into a […] EP tube, then 10 μL of daptomycin-d5 with 40 μL of sample/standard/quality control was added, the sample was vortex shaken for 1 min, centrifuged at high speed for 8 min (14,500 r/min), and the supernatant was placed in a 96-well plate for the assay.
NONMEM (version 8.1; ICON Development Solutions, Hanover, MD, United States) was used to establish a population PK model for daptomycin and to perform Monte Carlo simulations ([Bauer et al., 2007]). The ADAPT-TRAN program was used for pre- and post-processing ([Savic et al., 2009]). This study explored one- and two-compartment models of population PK of daptomycin. The two-compartment, disposition model was parameterised in terms of total clearance (CL), volume of distribution in the central compartment (VC), volume of distribution in the peripheral compartment (VP), and intercompartmental clearance (Q). The first order conditional estimation with inter- and intra-subject variability interaction (FOCE-I) was employed for all model runs. The inter-individual variability (η) was described using lognormal distributions, and a mixed additive and proportional model was chosen for residual variability (Ɛ). […]

[2] = cited from earlier work
[3] = Monitoring of creatinine phosphokinase (CPK) and adverse reactions during treatment; assay type: in vivo, human; conditions: 64 critically ill patients, 500 mg q24h i.v., during the treatment period
Protocol: Demographic and clinical characteristics of the enrolled patients were also collected from the medical records, including age, sex, weight, diagnosis, comorbidities, outcome, combination of other drugs (including antimicrobials), daily complete blood counts, biochemical test results (including liver and renal function and creatinine phosphokinase (CPK)), and whether CRRT or ECMO therapy was performed. In addition, acute physiology and chronic health evaluation (APACHE) and sequential organ failure assessment (SOFA) scores were calculated for each patient to determine disease severity. The patient’s creatinine clearance (CLCR) was calculated according to the Cockcroft-Gault formula based on serum creatinine at steady state on day 3.
The daptomycin dose was 500 mg every 24 h.

[4] = bootstrap analysis with 1000 samples

## CCCCCCCCCC(=O)N[C@@H](Cc1c[nH]c2ccccc12)C(=O)N[C@H](CC(N)=O)C(=O)N[C@@H](CC(=O)O)C(=O)N[C@@H]1C(=O)NCC(=O)N[C@@H](CCCN)C(=O)N[C@@H](CC(=O)O)C(=O)N[C@H](C)C(=O)N[C@@H](CC(=O)O)C(=O)NCC(=O)N[C@H](CO)C(=O)N[C@@H]([C@H](C)CC(=O)O)C(=O)N[C@@H](CC(=O)c2ccccc2N)C(=O)O[C@@H]1C [daptomycin, Daptomycin]
[1]; [4]
  Q, bootstrap median: 2.086 L/h
  VC, bootstrap median: 4.14 L
  VP, bootstrap median: 3.527 L
[1]; human, in vivo
  CL, renal part: coefficient of CCR/54 in the final covariate model: 0.148 L/h
  CRRT clearance, bootstrap median: 0.386 L/h
  NR (no renal clearance), bootstrap median: 0.231 L/h
  Q: 2.13 ± 0.17 L/h
  R (renal clearance), bootstrap median: 0.15
  R (renal clearance), final model estimate: 0.152
  V1: 4.20 ± 0.19 L
  V2: 3.67 ± 0.25 L
  non-renal clearance rate (CLNR) of non-CRRT patients: 0.23 ± 0.05 L/h
  renal clearance part (CLR), coefficient × (CCR/54): 0.14 ± 0.035
[1]; human, in vivo, iv
  NR (no renal clearance), final model estimate: 0.229 L/h
  Q (intercompartmental clearance), final model estimate: 2.09 L/h
  VC (volume of distribution in the central compartment), final model estimate: 4.14 L
  VP (volume of distribution in the peripheral compartment), final model estimate: 3.52 L
  clearance: 6.43 mL/min
[1]; sex as covariate in forward inclusion, not retained in the final model
  VP of males relative to females: approximately 1.4 times
[2]; ref Dvorchik et al., 2004
  metabolism by liver enzymes: not metabolized by liver enzymes
[2]; ref Enoch et al., 2007
  eliminated by the kidneys: 78%
[2]; ref Hawkey, 2008
  half-life: approximately 8 h
[3]
  CPK elevation or other adverse reactions related to daptomycin: No increase in CPK or other adverse reactions; also recorded: no elevation of CPK associated with daptomycin was found
